Data as given in US20250289785A1, “INDOLE DERIVATIVE, METHOD FOR PREPARING SAME, AND USE THEREOF” (MITOIMMUNE THERAPEUTICS INC., priority 2021, published 2025).

How the values were obtained:
NIH/3T3 cells = test: Cell death protective effect in fibroblasts against Erastin, glutamate and RSL3 (LDH); format: cell-based, mouse; details: 24 h
Description: (§1) In order to identify the protective effect on fibroblasts, NIH/3T3 cells were divided into 96-well plates by 8×10^3 and cultured for 18 to 24 hours. The compounds of Examples were diluted to final concentrations of 0.1 and 1 μM, treated in each well, and incubated for 15 to 20 minutes. Erastin, glutamate, and RSL3 were treated to have final concentrations of 3 μM, 30 mM, and 3 μM, respectively, and cultured for 24 hours. In order to identify the protective effect of each compound, the degree of LDH extracellular secretion was measured using cytotoxicity LDH assay kit [Dojindo; CK12]. Briefly, at the time when the treatment of the cells with Erastin, glutamate, and RSL3 for 24 hours is completed, the supernatants containing the cells are taken by 70 μL and transferred to a new 96-well plate. The assay buffer included in the kit is added in an amount of 70 μL/well (the same amount as the sample) thereto, and then the plate is wrapped with a foil and the reaction is performed at room temperature for 15 minutes.

ARPE-19 cells = test: Cell death protective effect in retinal epithelial cells against Erastin and RSL3 (LDH); format: cell-based, human; details: 24 h
Description: In order to identify the protective effect on retinal epithelial cells, ARPE-19 cells were divided into 96-well plates by 1×10^4 and cultured for 18 to 24 hours. The compounds of Examples were diluted to final concentrations of 0.03 and 0.3 μM, treated in each well, and incubated for 20 minutes. Erastin, and RSL3 were treated to have final concentrations of 10 μM, and 0.3 μM, respectively, and cultured for 24 hours. In order to identify the protective effect of each compound, the degree of LDH extracellular secretion was measured using cytotoxicity LDH assay kit [Dojindo; CK12]. Briefly, at the time when the treatment of the cells with Erastin, and RSL3 for 24 hours is completed, the supernatants containing the cells are taken by 70 μL and transferred to a new 96-well plate. The assay buffer included in the kit is added in an amount of 70 μL/well (the same amount as the sample) thereto, and then the plate is wrapped with a foil and the reaction is performed at room temperature for 15 minutes.

PC-12 cells = test: Cell death protective effect in adrenal cells against Erastin, glutamate and RSL3 (LDH); format: cell-based, rat; details: 24 h
Description: In order to identify the protective effect on adrenal cells, PC-12 cells were divided into 96-well plates by 1×10^4 and cultured for 18 to 24 hours. […] Erastin, glutamate, and RSL3 were treated to have final concentrations of 1 μM, 10 mM, and 0.3 μM, respectively, and cultured for 24 hours. In order to identify the protective effect of each compound, the degree of LDH extracellular secretion was measured using cytotoxicity LDH assay kit [Dojindo; CK12]. Briefly, at the time when the treatment of the cells with Erastin, glutamate, and RSL3 for 24 hours is completed, the supernatants containing the cells are taken by 70 μL and transferred to a new 96-well plate. The assay buffer included in the kit is added in an amount of 70 μL/well (the same amount as the sample) thereto, and then the plate is wrapped with a foil and the reaction is performed at room temperature for 15 minutes.

H9C2 cells [1] = test: Cell death protective effect in cardiac myocytes against Erastin, glutamate and RSL3 (LDH); format: cell-based, white mouse; details: 24 h
Description: as §1, with “on cardiac cells, H9C2” for “on fibroblasts, NIH/3T3”, “by 1×10^4” for “by 8×10^3”, “and 1.0” for “and 1”, “of 1” for “of 3”, “μM, 25” for “μM, 30”, “and 0.5” for “and 3”

H9C2 cells [2] = test: Cell protection effect against t-BHP in heart cells (LDH release); format: cell-based; details: H9C2, t-BHP 40 μM, 2 hours
Description: In order to identify the protective effect with regard to heart cells, H9C2 cells were divided into 96-well plates by 1.5×10^4, and cultured for 24 hours. The respective wells were treated with compounds of the examples 3× serial diluted to final concentrations of […], then cultured for 15 to 20 minutes. After treating with t-BHP with a final concentration of 40 μM, culturing was performed for 2 hours. In order to identify the protective effect of each compound, a Cytotoxicity LDH assay kit [Dojindo; CK12] was used to measure the degree of extracellular secretion of LDH. To describe briefly, at the time point 2-hour treatment of the cells with t-BHIP was completed, 100 μL each of the supernatant in which the cells were placed was collected and moved to a new 96-well plate. 100 μL/well of the assay buffer included in the kit (same amount as the sample) was added, followed by wrapping with foil and reacting for 30 minutes at room temperature. Observing the change in color of the sample, 50 μL/well of stop solution was added, then an iD3 spectrometer was used to measure absorbance at 490 nm and calculate the EC50 values. The EC50 of the compounds of the examples is preferably no more than 1.0 μM, and more preferably no more than 0.3 μM.

[3] = NIH/3T3, Erastin, 3 μM, compound 0.1 μM
[4] = NIH/3T3, Erastin, 3 μM, compound 1.0 μM
[5] = NIH/3T3, Glutamate, 30 mM, compound 0.1 μM
[6] = NIH/3T3, Glutamate, 30 mM, compound 1.0 μM
[7] = NIH/3T3, RSL3, 3 μM, compound 0.1 μM
[8] = NIH/3T3, RSL3, 3 μM, compound 1.0 μM
[9] = ARPE-19, Erastin, 10 μM, compound 0.03 μM
[10] = ARPE-19, Erastin, 10 μM, compound 0.3 μM
[11] = ARPE-19, RSL3, 0.3 μM, compound 0.03 μM (first RSL3 column)
[12] = ARPE-19, RSL3, 0.3 μM, compound 0.03 μM (second RSL3 column)
[13] = PC-12, Erastin, 1 μM, compound 0.1 μM
[14] = PC-12, Erastin, 1 μM, compound 1.0 μM
[15] = PC-12, Glutamate, 10 mM, compound 0.1 μM
[16] = PC-12, Glutamate, 10 mM, compound 1.0 μM
[17] = PC-12, RSL3, 0.3 μM, compound 0.1 μM
[18] = PC-12, RSL3, 0.3 μM, compound 1.0 μM
[19] = H9C2, Erastin, 1 μM, compound 0.1 μM
[20] = H9C2, Erastin, 1 μM, compound 1.0 μM
[21] = H9C2, Glutamate, 25 mM, compound 0.1 μM
[22] = H9C2, Glutamate, 25 mM, compound 1.0 μM
[23] = H9C2, RSL3, 0.5 μM, compound 0.1 μM
[24] = H9C2, RSL3, 0.5 μM, compound 1.0 μM

| SMILES | inhibition (%) (NIH/3T3 cells; [3]) | inhibition (%) (NIH/3T3 cells; [4]) | inhibition (%) (NIH/3T3 cells; [5]) | inhibition (%) (NIH/3T3 cells; [6]) | inhibition (%) (NIH/3T3 cells; [7]) | inhibition (%) (NIH/3T3 cells; [8]) | inhibition (%) (ARPE-19 cells; [9]) | inhibition (%) (ARPE-19 cells; [10]) | inhibition (%) (ARPE-19 cells; [11]) | inhibition (%) (ARPE-19 cells; [12]) | inhibition (%) (PC-12 cells; [13]) | inhibition (%) (PC-12 cells; [14]) | inhibition (%) (PC-12 cells; [15]) | inhibition (%) (PC-12 cells; [16]) | inhibition (%) (PC-12 cells; [17]) | inhibition (%) (PC-12 cells; [18]) | inhibition (%) (H9C2 cells [1]; [19]) | inhibition (%) (H9C2 cells [1]; [20]) | inhibition (%) (H9C2 cells [1]; [21]) | inhibition (%) (H9C2 cells [1]; [22]) | also measured |
| --- | --- | --- | --- | --- | --- | --- | --- | --- | --- | --- | --- | --- | --- | --- | --- | --- | --- | --- | --- | --- | --- |
| COCc1cc(NC2CCOCC2)c2[nH]c(-c3ccccc3)cc2c1 [Example 1, 5-(methoxymethyl)-2-phenyl-N-tetrahydropyran-4-yl-1H-indol-7-amine] | 99 | 99 | 98 | 97 | 98 | 99 | 100 | 100 | 100 | 100 | 100 | 100 | 77 | 100 | 100 | 100 | 100 | 100 | 97 | 98 | inhibition (%) (H9C2 cells [1]; [23]): 100%; inhibition (%) (H9C2 cells [1]; [24]): 100%; EC50 (H9C2 cells [2]): ≤ 300 nM |
| COCc1cc(NC2CCCC2)c2[nH]c(-c3ccccc3)cc2c1 [Example 2, N-cyclopentyl-5-(methoxymethyl)-2-phenyl-1H-indol-7-amine] | 99 | 100 | 98 | 99 | 100 | 100 | 100 | 100 | 100 | 100 | 100 | 100 | 96 | 100 | 100 | 100 | 100 | 100 | 97 | 98 | inhibition (%) (H9C2 cells [1]; [23]): 100%; inhibition (%) (H9C2 cells [1]; [24]): 100%; EC50 (H9C2 cells [2]): ≤ 300 nM |
| COCc1cc(NC2CC[S+]([O-])CC2)c2[nH]c(-c3ccccc3)cc2c1 (centres unmarked) [Example 14, 5-(methoxymethyl)-N-(1-oxothian-4-yl)-2-phenyl-1H-indol-7-amine] | 38 | 100 | 97 | 96 | 100 | 100 | 100 | 98 | 82 | 98 | 100 | 100 | 45 | 100 | 100 | 100 | 100 | 100 | 97 | 99 | inhibition (%) (H9C2 cells [1]; [23]): 100%; inhibition (%) (H9C2 cells [1]; [24]): 100%; EC50 (H9C2 cells [2]): ≤ 300 nM |
| CCOCc1cc(NC2CCCC2)c2[nH]c(-c3ccccc3)cc2c1 [Example 19, N-cyclopentyl-5-(ethoxymethyl)-2-phenyl-1H-indol-7-amine] | 100 | 100 | 95 | 97 | 100 | 100 | 99 | 100 | 100 | 100 | 100 | 100 | 100 | 100 | 100 | 100 | 100 | 100 | 99 | 100 | inhibition (%) (H9C2 cells [1]; [23]): 100%; inhibition (%) (H9C2 cells [1]; [24]): 100%; EC50 (H9C2 cells [2]): ≤ 300 nM |
| CCOCc1cc(NC2CCOCC2)c2c(c1)c(COC)c(-c1ccccc1)n2C [Example 29, 5-(ethoxymethyl)-3-(methoxymethyl)-1-methyl-2-phenyl-N-(tetrahydro-2H-pyran-4-yl)-1H-indol-7-amine] | 0 | 99 | 98 | 97 | 100 | 100 | 22 | 100 | 18 | 100 | 0 | 100 | 22 | 71 | 26 | 100 | 1 | 100 | 6 | 95 | inhibition (%) (H9C2 cells [1]; [23]): 10%; inhibition (%) (H9C2 cells [1]; [24]): 100%; EC50 (H9C2 cells [2]): 300 to 1000 nM |
| CCOC(=O)c1ccc(NC2CCCCC2)c(N)c1 [Ferrostatin-1, reference compound] | 0 | 96 | 98 | 98 | 100 | 100 | 96 | 100 | 68 | 100 | 100 | 100 | 29 | 99 | 100 | 100 | 100 | 100 | 95 | 97 | inhibition (%) (H9C2 cells [1]; [23]): 83%; inhibition (%) (H9C2 cells [1]; [24]): 100% |
